Test results: patent US20040005327A1, “Immune T-cell stimulation” (priority 2002, published 2004)
Where “and” joins values, the source holds several entries; their conditions need not be identical. Identical values can stand only once.

System: T-lymphocytes
Assay: Blastogenesis of T-cells, 3H-thymidine incorporation
Format: cell-based
Conditions: for 3H-thymidine incorporation/well / Stimulation Index: PHA 5 μg/ml
Procedure: Dilutions of PHA were prepared from 1:100 to 1:1000 and the dilutions were added to mycro-plate system lymphocyte cultures. Phytohemaglutinin, Pockeweed antigen and A Concanavalin were added to identified wells. After the culture period, T-lymphocytes proliferation was determined by radioactive tymidine uptake assay.
The present study compared the mitogenic effect of hyperimmune whole egg and a partially purified fraction of the hyperimmune egg (less then 3K fraction described in Example 2) against control medium alone. The hyperimmune whole egg was tested at varying concentrations that include 0.24, 0.98, 3.9, 15.6, 62.5 and 250 μg/ml. The purified less than 3K fraction from the hyperimmune egg was tested at 0.1, 0.2, 0.7, 2.0, 6.1, 18.4, 55.3 and 166.0 μg/ml concentrations. The Stimulating Index for hyperimmune whole egg, in accordance with the above concentrations, was 0.9, 0.8, 0.9, 0.9, 0.8, and 0.8 respectively, which corresponds, in the test conditions, to a cell population increase of 90, 80, 90, 90, 80 and 80% respectively. The Stimulating Index for the 3K purified fraction, in accordance with the above concentrations, was 1.1, 1.2, 1.5, 1.7, 1.4, 1.3, 1.0 and 1.2 respectively (see Table 2), which corresponds, in the test conditions, to a cell population increasing of 110, 120, 150, 170, 140, 130, 100 and 120% respectively.

[1] = single wells No. 1-6, first study
[2] = single wells No. 1-6, repeated study

Phytohemaglutinin [PHA]
3H-thymidine incorporation/well (AVE of 6 wells, first study): 108028 cpm | Stimulation Index (AVE of 6 wells, first study): 195.8 | 3H-thymidine incorporation/well (AVE of 6 wells, repeated study): 109901 cpm | Stimulation Index (AVE of 6 wells, repeated study): 292.2 | 3H-thymidine incorporation/well [1]: 98898 cpm and 121212 cpm and 97149 cpm and 118218 cpm and 101241 cpm and 111452 cpm | Stimulation Index [1]: 179.2 and 219.7 and 176.0 and 214.2 and 183.5 and 202.0 | 3H-thymidine incorporation/well [2]: 110201 cpm and 121811 cpm and 97453 cpm and 112934 cpm and 102484 cpm and 114522 cpm | Stimulation Index [2]: 293.0 and 323.8 and 259.1 and 300.2 and 272.4 and 304.4 | T-lymphocytes proliferation (PHA dilutions 1:100 to 1:1000, radioactive tymidine uptake): increased the proliferation of free mitogen lymphocytes intensively
